A word on the IC50: it is the concentration that gives 50% inhibition.

Structures are written as SMILES.

In this assay the target is T1, Prostaglandin G/H synthase 2 (Homo sapiens, UniProt P35354).
T1 sequence (P35354 whole entry): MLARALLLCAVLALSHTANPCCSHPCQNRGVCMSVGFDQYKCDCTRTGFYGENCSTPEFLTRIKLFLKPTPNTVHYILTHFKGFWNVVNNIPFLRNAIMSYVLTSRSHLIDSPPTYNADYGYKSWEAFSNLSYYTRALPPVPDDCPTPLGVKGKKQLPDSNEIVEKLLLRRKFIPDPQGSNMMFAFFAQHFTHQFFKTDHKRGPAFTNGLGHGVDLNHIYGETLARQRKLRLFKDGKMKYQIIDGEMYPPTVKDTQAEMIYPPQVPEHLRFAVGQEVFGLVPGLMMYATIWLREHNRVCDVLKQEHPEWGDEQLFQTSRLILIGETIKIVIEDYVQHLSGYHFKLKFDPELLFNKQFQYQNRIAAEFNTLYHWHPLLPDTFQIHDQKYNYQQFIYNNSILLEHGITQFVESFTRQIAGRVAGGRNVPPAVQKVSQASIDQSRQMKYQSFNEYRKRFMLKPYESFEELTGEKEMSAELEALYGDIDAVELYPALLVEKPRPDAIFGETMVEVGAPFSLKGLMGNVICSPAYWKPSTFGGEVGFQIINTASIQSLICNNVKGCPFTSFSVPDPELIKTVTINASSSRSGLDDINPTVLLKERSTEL
As to the kind of experiment: Inhibition of COX2 assessed as inhibition of PGE2 production using arachidonic acid as substrate after 10 mins by ELISA. (In general: In an ELISA, binding on a coated surface is turned into a signal by an enzyme label.)
As for `O=C1O[C@@H](c2ccc(O)c(O)c2)[C@H](C(=O)O)/C1=C\c1ccc(O)c(O)c1` [PHELLINSIN A], the IC50 worked out at 42.6 µM.
As for `O=C(O)/C=C/c1ccc2c(c1)O[C@@H](C(=O)O)[C@@H](c1ccc(O)c(O)c1)O2` (relative stereo), the IC50 amounted to 52.6 µM.
For `O=C(O)/C=C/c1ccc2c(c1)O[C@H](c1cc(O)cc(O)c1)[C@H](C(=O)O)O2` [CAFFEICINIC ACID], the IC50 was 7.5 µM.
The figure for `O=C(O)/C=C/C12C=C(O)C(=O)C=C1C(=O)C1=Cc3cc(O)c(O)cc3O[C@@H](c3ccc(O)c(O)c3)[C@@H]12` (relative stereo) is 9.8 µM.
